Patent US12109266B2, “Modulating gabarap to modulate immunogenic cell death” (Dana-Farber Cancer Institute, Inc., priority 2020, dated 2024)
Entries after “also recorded” stand apart in the source; their conditions may differ.

How the values were obtained:
5TGM1 tumors [1] = test: In vivo tumor growth analysis; set-up: species or system mouse
Experimental: (§1) 6-week old female immunodeficient NOD.CB17-Prkdcscid/NCrCrl (NOD/SCID) mice (Charles River) and immunocompetent C57BL/KaLwRijHsd (Envigo) mice were housed in an animal facility at the Dana-Farber Cancer Institute (DFCI). All experiments were performed after approval by the Animal Ethics Committee of the DFCI and performed using institutional guidelines.
To assess the effect of BTZ in the absence of an immune system, NOD/SCID mice were subcutaneously injected with 1×10^6 5TGM1 WT cells in a 1:1 ratio with Matrigel® (Corning); to assess BTZ in an immunocompetent host, C57BL/KaLwRijHsd mice were injected with 1×10^6 5TGM1 either WT or calrKO in the same ratio with Matrigel®. When tumor became measurable, mice (5/group) were randomized to receive either PBS or BTZ administered intra peritoneally (i.p.) 0.5 mg/kg twice/week for 2 weeks. Tumor sizes were measured and mice were sacrificed when tumors reached 2 cm in diameter or ulceration or major compromise in quality of life. A parallel experiment was performed to allow for tumor harvesting after two injections i.p. of BTZ for RNA-seq analysis, as detailed below.
as §1, with “(NOD/SCID)” for “(NOD/SCID) mice”, “in the” for “in an”, “at DFCI.” for “at the Dana-Farber Cancer Institute (DFCI).”
(§2) NOD/SCID and C57BL/KaLwRijHsd mice were subcutaneously (sc) injected with 1×10^6 5TGM1 either WT or Calr^KO cells in PBS. When tumor became measurable, mice were randomized to receive either PBS or BTZ administered intra peritoneally (i.p.) 0.5 mg/kg twice/week for 2 weeks. Tumor sizes were measured as previously described (46), and mice were sacrificed when tumors reached 2 cm in diameter or ulceration or major compromise in quality of life. A parallel experiment was performed to allow for tumor harvesting after two injections ip of BTZ for RNA-seq analysis, as detailed below. For BTZ and STING agonist combination studies, C57BL/KaLwRijHsd (n=5/group) and SCID/NOD (n=6/group) mice bearing 5TGM1 WT and C57BL/KaLwRijHsd mice (n=5/group) bearing 5TGM1 Sting^KO tumors were randomized to receive: PBS, BTZ (0.375 mg/kg twice a week for 2 weeks, i.p.), ADU-S100 (100 μg) administered in the peritumoral area (day 1 and 2), or a combination. Tumor sizes were measured as described above. A parallel experiment in C57BL/KaLwRijHsd mice was performed to allow for tumor harvesting after one administration of either BTZ or ADU-S100. Tumors were fixed in 10% formalin for 24 h, and then maintained in 70% ethanol prior to paraffin embedding and processing for IHC to detect CD3 (#nb600 Ab, Novus Bio).

[2] = tested on: type-I IFN response in AMO1 and NCI-H929 MM cells; test: Type-I IFN response in MM cells (RNA-seq, qRT-PCR, ELISA); format: cell-based, human; conditions: H929; STING agonist 10 uM with BTZ 5 nM
Experimental: Total RNA from multiple myeloma cells was prepared with TRIzol™ (ThermoFisher Scientific) and RNA Clean and Concentrator™-5 kit (Zymo Research) following the product instructions. RNA integrity and quantity was assessed by NanoDrop Spectrophotometer (ThermoFisher Scientific). For analysis of mRNA expression, oligo-dT-primed cDNA was obtained using the High Capacity cDNA Reverse Transcription Kit (ThermoFisher Scientific), and used as template to quantify: human and murine IFNA1 (Hs03044218_g1, Mm03030145_gH), human and murine IFNB1 (Hs01077958_s1, Mm00439552_s1), human and murine CXCL9 (Hs00171065_ml, Mm00434946_ml), and human and murine GAPDH (Hs02786624_g1, Mm99999915_g1). Analysis was determined by RT-PCR using TaqMan®Fast Universal PCR Master Mix on a 7500 Fast Real-Time PCR System (ThermoFisher Scientific). Comparative RT-PCR was performed in triplicate. Relative expression was calculated using the comparative […] (Ct) method.
AMO1^WT and STING^KO cells were either untreated or treated with BTZ for 24 h. Supernatant was collected, and secretion of CXCL9 chemokines was analyzed by MIG (CXCL9) Human Instant ELISA™ Kit (#BMS285INST, ThermoFisher Scientific).
AMO1 WT and STING^KO were cultured for 16 h in the presence of absence of BTZ (5 nM). RNA was extracted as previously described and submitted to NovaSeq RNAseq analysis followed by VIPER NGS Analysis pipeline (Cornwell et al. (2018) BMC Bioinformatics; 19(1):135). Lists of DEGs were applied to the GSEA software. RNAseq data have been submitted to Gene Expression Omnibus (accession number: GSE171837).

cGAS/STING pathway = test: Western blot of cGAS/STING pathway; format: cell-based, human; conditions: AMO1; ADU-S100 10 uM with BTZ 5 nM
Experimental: Cell lysis was performed in RIPA buffer (Boston Bio Products) supplemented with Halt protease and phosphatase inhibitor cocktail (ThermoFisher Scientific). SDS-PAGE was performed on NuPage Bis-Tris gels (ThermoFisher Scientific) using MOPS or MES running buffer. Gels were dry transferred onto 0.45 μm nitrocellulose membranes using the iBlot® Dry Blotting System (ThermoFisher Scientific). The following Abs were purchased from Cell Signaling Technology: EIF2A (#5324), p-EIF2A (#3398), ATF4 (#11815), CHOP (2895), CALR (#12238), cGAS (#15102), TBK1 (#3504), pTBK1 (#5483), pIRF3 (#29047), STING (#13647). GAPDH (#2118) and B-ACTIN (#4970) were used as loading controls.

5TGM1 MM cells = test: Cell Counting Kit-8 (CCK-8) proliferation assay; format: cell-based, murine; conditions: ADU-S100 0-5 uM, 72 hr
Experimental: Cell viability was evaluated by Cell Counting Kit-8 (CCK-8) assay (Dojindo Molecular Technologies).

5TGM1 tumors [3] = test: IHC CD3 staining of tumors; format: in vivo, mouse; conditions: tumors retrieved after one administration of the drugs
Experimental: as §2

MM cell lines = conditions: different MM cell lines; cited from earlier work
HR-SMM = conditions: cited from earlier work
[4] = tested on: AMO1, H929 and KMS11 MM cells; test: Phagocytosis assay of MM cells by monocyte-derived DCs; format: cell-based, human; conditions: AMO1 GABARAP^KO after BTZ, rCALR 3 ug/10^6 cells
Experimental: Mo-DCs were generated from CD14+ peripheral blood monocytes were positively selected using magnetic beads (Miltenyi Biotec) and cultured for 6 days in mo-DC differentiation medium containing GM-CSF and IL-4 (130-094-812; Miltenyi Biotec) to generate Mo-DCs. AMO1, KMS11 and H929 cells lines, as well as patient MM cells, were stained with CellTrace™ Far Red (ThermoFisher Scientific), cultured with or without BTZ (for 16 h), and then incubated in 48-well plates for 4 h at 1:1 ratio with CellTrace™ CFSE stained Mo-DCs. Cells were then collected, and phagocytosis analysis was performed by flow cytometry and confocal microscopy. Analagous phagocytosis experiments was performed using 5TGM1 murine MM and immature murine DC line JAWSII.
Collected cells were analyzed using the BD LRSFortessa™ X-20 flow cytometer. Mo-DCs that engulfed MM cells were CFSE and FAR-RED double positive. Fold increase in percentage of double positive DCs after co-culture with BTZ treated vs untreated MM cells was compared.
Mo-DCs were generated from CD14+ peripheral blood monocytes from healthy donors, positively selected using magnetic beads (Miltenyi Biotec), cultured for 6 days in mo-DC differentiation medium containing GM-CSF and IL-4 (130-094-812; Miltenyi Biotec). AMO1 and NCI-H929 cells lines, as well as patient MM cells, were stained with CellTrace™ Far Red (ThermoFisher Scientific), cultured with or without BTZ for 16 h, and then incubated in 48-well plates for 4 h at 1:1 ratio with CellTrace™ CFSE stained Mo-DCs. Cells were then collected, and phagocytosis analysis was performed by flow cytometry and confocal microscopy. Analagous phagocytosis experiments were performed using 5TGM1 murine multiple myeloma and JAWSII cell line that was used as source of immature murine DCs.
Flow cytometry-based assay: Collected cells were analyzed using the BD LRSFortessa X-20 flow cytometer. Mo-DCs that engulfed MM cells were CFSE and FAR-RED double positive. Fold increase in percentage of double positive DCs after co-culture with BTZ treated vs untreated MM cells was compared.

Nc1ncnc2c1ncn2[C@@H]1O[C@@H]2COP(=O)([S-])O[C@@H]3[C@H](O)[C@@H](COP([O-])(=S)O[C@H]2[C@H]1O)O[C@H]3n1cnc2c(N)ncnc21.[Na+].[Na+] (some centres unmarked) [ADU-S100]
anti-tumor activity (5TGM1 tumors [1]; 5TGM1 Sting^KO tumors in immunocompetent mice): still retained a partial anti-multiple myeloma activity
anti-tumor effects (5TGM1 tumors [1]; 5TGM1 WT in immunodeficient NOD/SCID mice, BTZ 0.375 mg/kg, ADU-S100 100 ug day 1 and 2): abrogated the anti-tumor effects
transcription of IFNA1 and IFNB1 [2]: increased transcription of IFNA1 and IFNB1
phosphorylated TBK1 (cGAS/STING pathway): higher levels of phosphorylated TBK1 kinase
direct killing of MM cells (live cells vs untreated) (5TGM1 MM cells): sensitive to a direct killing
CD3+ T cell infiltration within tumors (IHC) (5TGM1 tumors [3]): increased CD3+ T cell infiltration within tumors

CC(C)C[C@H](NC(=O)[C@H](CCc1ccccc1)NC(=O)CN1CCOCC1)C(=O)N[C@@H](Cc1ccccc1)C(=O)N[C@@H](CC(C)C)C(=O)[C@@]1(C)CO1 [carfilzomib]
CRT exposure (MM cell lines): shown to expose CRT in different MM cell lines

Nc1cccc2c1CN(C1CCC(=O)NC1=O)C2=O (centres unmarked) [lenalidomide]
progression of HR-SMM (HR-SMM; lenalidomide alone): delay progressions of HR-SMM
treatment discontinuation and secondary cancers (HR-SMM; lenalidomide cohort): high rate of treatment discontinuation and secondary cancers

B1: rCRT: recombinant calreticulin purchased from Sigma (SRP8001) (protein)
chain: EPAVYFKEQFLDGDGWTSRWIESKHKSDFGKFVLSSGKFYGDEEKDKGLQTSQDARFYALSASFEPFSNKGQTLVVQFTVKHEQNIDCGGGYVKLFPNSLDQTDMHGDSEYNIMFGPDICGPGTKKVHVIFNYKGKNVLINKDIRCKDDEFTHLYTLIVRPDNTYEVKIDNSQVESGSLEDDWDFLPPKKIKDPDASKPEDWDERAKIDDPTDSKPEDWDKPEHIPDPDAKKPEDWDEEMDGEWEPPVIQNPEYKGEWKPRQIDNPDYKGTWIHPEIDNPEYSPDPSIYAYDNFGVLGLDLWQVKSGTIFDNFLITNDEAYAEEFGNETWGVTKAAEKQMKDKQDEEQRLKEEEEDKKRKEEEEAEDKEDDEDKDEDEEDEEDKEEDEEEDVPGQAKDEL
phagocytosis of MM cells by DCs with recombinant calreticulin add-back [4]: confirmed the on-target effect GABARAP^KO; also recorded: restored phagocytosis of MM cells after BTZ
phagocytosis of MM cells by DCs with recombinant calreticulin add-back ([4]; listed as recombinant CRT): increases the immune response against the cancer cells
